Reference: patent US20260258029A1, “CHROMANE AMIDINE MONOBACTAM COMPOUNDS FOR THE TREATMENT OF BACTERIAL INFECTIONS” (priority 2022, published 2026)

How the values were obtained:
Assay type in all cases: cell-based
[1] = test system: Acinetobacter baumannii expressing TEM-1, AmpC, and Oxa-24/40 (CL6188); details: lowest concentration inhibiting 95% of bacterial growth; BLi relebactam 4 μg/mL; 35±2° C., 22 hours; OD600
Procedure: (§1) The concentrations of compounds required to inhibit the growth of various strains of bacteria were determined in an assay that assessed bacterial growth by measuring optical density at 600 nm (OD600). The bacterial strains tested included the clinical strains Escherichia coli expressing NDM-1 (CLB30016), Klebsiella pneumoniae expressing KPC-1 (CL6569), Acinetobacter baumannii expressing TEM-1, AmpC, and Oxa-24/40 (CL6188) and Pseudomonas aeruginosa expressing AmpC (CL5701). All compounds were tested in the presence of a R lactamase inhibitor (BLi, Relebactam) in 384-well microplates.
(§2) The clinical strains were stored as frozen single use stocks, thawed and diluted into 1.1× cation-adjusted Mueller-Hinton II broth to achieve approximately 2×10^5 CFU/mL. Test compounds were dissolved in DMSO and diluted 1:50 in the assay, resulting in a final concentration range of 100 μM to 0.098 μM. On the day of the assay, 1 μL of test compound was added to the plate followed by 4 μL of 50 μg/mL BLi in MOPS buffer and 45 μL of diluted bacteria. Plates were centrifuged at 1000 rpm for 30 seconds, shaken at approximately 800 rpm for 1 minute, and incubated at 35±2° C. for 22 hours. The concentration of BLi used in the assay was 4 μg/mL. At the end of the incubation, absorbance at 600 nm was determined using a spectrophotometer. Inhibition was quantitated by identifying the lowest concentration of test compound that was required to inhibit 95% of the growth of the bacteria. The results for Examples 1-39 are reported in Table I, expressed as the concentration of compound that inhibited 95% of bacterial growth (Minimum Inhibitory Threshold Concentration; MITC95).

[2] = test system: Pseudomonas aeruginosa expressing AmpC (CL5701); test: Growth inhibitory concentration (OD600), P. aeruginosa CL5701, with relebactam; details: lowest concentration inhibiting 95% of bacterial growth, BLi relebactam 4 μg/mL, 35±2° C., 22 hours
Procedure: as §1, §2

[3] = test system: Escherichia coli expressing NDM-1 (CLB30016); test: Growth inhibitory concentration (OD600), E. coli CLB30016, with relebactam; details: lowest concentration inhibiting 95% of bacterial growth, BLi relebactam 4 μg/mL, 35±2° C., 22 hours
Procedure: as §1, §2

Row | Compound | AB—CL6188 MITC95 [1] | PA—CL5701 MITC95 [2] | EC—CLB30016 MITC95 [3]
1 | CC1(C)[C@H](NC(=O)/C(=N\O[C@](C)(C(=O)O)[C@H]2CCc3cc(C(=N)NC[C@H]4C[C@](N)(CO)C4)ccc3O2)c2csc(N)n2)C(=O)N1OS(=O)(=O)O [Compound 70, (S)-2-((R)-6-(N-(((1s,3S)-3-amino-3-(hydroxymethyl)cyclobutyl)methyl)-carbamimidoyl)-chroman-2-yl)-2-((((Z)-1-(2-aminothiazol-4-yl)-2-(((S)-2,2-dimethyl-4-oxo-1-(sulfooxy)-azetidin-3-yl)amino)-2-oxoethylidene)amino)oxy)propanoic acid] | 6.25 µM | 1.563 µM | 6.25 µM
2 | CC1(C)[C@H](NC(=O)/C(=N\O[C@](C)(C(=O)O)[C@H]2CCc3cc(C(=N)NC[C@H]4C[C@@](N)(CO)C4)ccc3O2)c2csc(N)n2)C(=O)N1OS(=O)(=O)O [Compound 71, (S)-2-((R)-6-(N-(((1r,3R)-3-amino-3-(hydroxymethyl)cyclobutyl)methyl)-carbamimidoyl)-chroman-2-yl)-2-((((Z)-1-(2-aminothiazol-4-yl)-2-(((S)-2,2-dimethyl-4-oxo-1-(sulfooxy)-azetidin-3-yl)amino)-2-oxoethylidene)amino)oxy)propanoic acid] | 3.125 µM | 1.563 µM | 6.25 µM
3 | tert-butyl (S)-2-((((Z)-1-(2-((tert-butoxycarbonyl)amino)thiazol-4-yl)-2-(((S)-2,2-dimethyl-4-oxo-1-(sulfooxy)azetidin-3-yl)amino)-2-oxoethylidene)amino)oxy)-2-((R)-6-(N—(((S)-morpholin-2-yl)methyl)carbamimidoyl)chroman-2-yl)propanoate [Compound 32] | 12.5 µM | 3.125 µM | 6.25 µM
